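How tested: cells in 96-well plates exposed to compound for 48 hours at five concentrations. Definition used: TGI = concentration required for complete inhibition of growth.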

For one experiment, the system named is U251 CNS. Kind of experiment: NCI tumour cell line growth inhibition, 48 h.
`O=c1[nH]c2cc(C(F)(F)F)ccc2nc1C(F)(F)F` showed a TGI of more than 100 µM.
On the same count and under the same terms, then `Cc1ccc(C(=O)N/N=C(\N=Nc2cccc([N+](=O)[O-])c2)c2ccc(N(CCC#N)CCC#N)cc2C)cc1`, with more than 100 µM; and `O=C(O)c1c2c(cc3c1CC(Cc1ccccc1)C3=O)CCC2` (stereo not drawn), with more than 100 µM; and `OC(CC1CCCCN1)c1ccc2c(c1)oc1ccccc12` (stereo not drawn), with more than 100 µM.
Same read-out and setting: then `C=CC[C@]1(/C=N/O)CN(S(=O)(=O)CC[Si](C)(C)C)C[C@H]2CC=CC[C@H]21`, with 32.2 µM; and `O=C1OC(CCCN2CCCCC2)(c2ccccc2)CC12CCCC2` (stereo not drawn), with more than 100 µM; and `COC(=O)[C@@H]1C=C[C@H](OC2OC(COC(C)=O)C(OC(C)=O)C(OC(C)=O)C2OC(C)=O)n2c(=O)n(-c3ccccc3)c(=O)n21` (stereo partly drawn), with 8.33 µM.
Still for that read-out and setting: then `Nc1ccccc1CCN1CCN(CCCc2ccccc2)CC1`, with more than 100 µM; and `COC(=O)C1=C(OC(=O)/C(=C/c2ccccc2)c2ccc(Cl)cc2Cl)C(C(=O)OC)[C@@]2(O)[C@@H](C(=O)OC)[C@H](C)C[C@@H]1[C@@H]2C(=O)OC` (stereo partly drawn), with more than 100 µM.
For `C#CCn1c(=O)c(I)cn(/C(=C/C(=O)OCC)C(=O)OCC)c1=O`, the TGI came to 32.1 µM.
Same read-out and setting: the figure for `CS(=O)(=O)C(C#N)c1nc2ccccc2nc1Cl` (stereo not drawn) is more than 100 µM; for `O=C(/C=C/c1ccc(O)c(O)c1)OCC(OC(=O)/C=C/c1ccc(O)c(O)c1)C(=O)O` (stereo not drawn) it is more than 100 µM.
Same read-out and setting: the figure for `COc1ccc(CC2COc3cc(OC)cc(OC)c3C2=O)cc1` (stereo not drawn) is more than 100 µM; for `O=c1oc2ccccc2c(Nc2ccc3c(c2)Sc2ccccc2O3)c1[N+](=O)[O-]` it is 41.7 µM.

A further experiment relates to HCT-116 colon. Kind of experiment: NCI tumour cell line growth inhibition, 48 h.
`COC(=O)C1Cc2cc3c(cc2C1=O)CCC3` (stereo not drawn): the TGI was more than 100 µM.
On the same count and under the same terms, the figure for `Cc1c(N2C(=O)C(Cl)C2/C=C/c2ccccc2)c(=O)n(-c2ccccc2)n1C` (stereo not drawn) is 34.8 µM.
On the same count and under the same terms, the figure for `Cc1ccc2c(ccc(/C=C/c3ccc(O)c4ncccc34)[n+]2C)c1` is 24.3 µM.
The same measure, in the same setting: then `CCOC(=O)c1ccc(N=C/C=C(\Nc2ccc(C(=O)OCC)cc2)C23CC4CC(CC(C4)C2)C3)cc1`, with more than 100 µM.
Molecule `O=c1[nH]c2cc(C(F)(F)F)ccc2nc1C(F)(F)F` displayed a TGI of more than 100 µM.
The same measure, in the same setting: then `Cc1ccc(C(=O)N/N=C(\N=Nc2cccc([N+](=O)[O-])c2)c2ccc(N(CCC#N)CCC#N)cc2C)cc1`, with more than 74.8 µM; and `O=C(O)c1c2c(cc3c1CC(Cc1ccccc1)C3=O)CCC2` (stereo not drawn), with more than 100 µM.
Regarding `OC(CC1CCCCN1)c1ccc2c(c1)oc1ccccc12` (stereo not drawn), the TGI was more than 100 µM.
On the same count and under the same terms, then `C=CC[C@]1(/C=N/O)CN(S(=O)(=O)CC[Si](C)(C)C)C[C@H]2CC=CC[C@H]21`, with 27.3 µM; and `O=C1OC(CCCN2CCCCC2)(c2ccccc2)CC12CCCC2` (stereo not drawn), with more than 100 µM; and `COC(=O)[C@@H]1C=C[C@H](OC2OC(COC(C)=O)C(OC(C)=O)C(OC(C)=O)C2OC(C)=O)n2c(=O)n(-c3ccccc3)c(=O)n21` (stereo partly drawn), with 3.82 µM.
On to `Nc1ccccc1CCN1CCN(CCCc2ccccc2)CC1`, for which the TGI was more than 100 µM.
Still for that read-out and setting: the figure for `COC(=O)C1=C(OC(=O)/C(=C/c2ccccc2)c2ccc(Cl)cc2Cl)C(C(=O)OC)[C@@]2(O)[C@@H](C(=O)OC)[C@H](C)C[C@@H]1[C@@H]2C(=O)OC` (stereo partly drawn) is more than 100 µM; for `C#CCn1c(=O)c(I)cn(/C(=C/C(=O)OCC)C(=O)OCC)c1=O` it is 3.59 µM; for `CS(=O)(=O)C(C#N)c1nc2ccccc2nc1Cl` (stereo not drawn) it is more than 100 µM.
On the same count and under the same terms, the figure for `O=C(/C=C/c1ccc(O)c(O)c1)OCC(OC(=O)/C=C/c1ccc(O)c(O)c1)C(=O)O` (stereo not drawn) is more than 100 µM; for `COc1ccc(CC2COc3cc(OC)cc(OC)c3C2=O)cc1` (stereo not drawn) it is 32.7 µM.
`O=c1oc2ccccc2c(Nc2ccc3c(c2)Sc2ccccc2O3)c1[N+](=O)[O-]` showed a TGI of more than 100 µM.

The test system of another experiment is SK-MEL-2 melanoma. Kind of experiment: NCI tumour cell line growth inhibition, 48 h.
For `COC(=O)C1Cc2cc3c(cc2C1=O)CCC3` (stereo not drawn), the TGI is more than 100 µM.
Same read-out and setting: then `Cc1c(N2C(=O)C(Cl)C2/C=C/c2ccccc2)c(=O)n(-c2ccccc2)n1C` (stereo not drawn), with 40.6 µM; and `Cc1ccc2c(ccc(/C=C/c3ccc(O)c4ncccc34)[n+]2C)c1`, with 36.3 µM; and `CCOC(=O)c1ccc(N=C/C=C(\Nc2ccc(C(=O)OCC)cc2)C23CC4CC(CC(C4)C2)C3)cc1`, with more than 100 µM.
The same measure, in the same setting: then `O=c1[nH]c2cc(C(F)(F)F)ccc2nc1C(F)(F)F`, with 79.3 µM; and `Cc1ccc(C(=O)N/N=C(\N=Nc2cccc([N+](=O)[O-])c2)c2ccc(N(CCC#N)CCC#N)cc2C)cc1`, with more than 77.3 µM.
`O=C(O)c1c2c(cc3c1CC(Cc1ccccc1)C3=O)CCC2` (stereo not drawn) gave a TGI of more than 100 µM.
Still for that read-out and setting: then `OC(CC1CCCCN1)c1ccc2c(c1)oc1ccccc12` (stereo not drawn), with more than 100 µM; and `C=CC[C@]1(/C=N/O)CN(S(=O)(=O)CC[Si](C)(C)C)C[C@H]2CC=CC[C@H]21`, with 32.6 µM; and `O=C1OC(CCCN2CCCCC2)(c2ccccc2)CC12CCCC2` (stereo not drawn), with more than 100 µM.
Still for that read-out and setting: then `COC(=O)[C@@H]1C=C[C@H](OC2OC(COC(C)=O)C(OC(C)=O)C(OC(C)=O)C2OC(C)=O)n2c(=O)n(-c3ccccc3)c(=O)n21` (stereo partly drawn), with 5.05 µM.
Still for that read-out and setting: the figure for `Nc1ccccc1CCN1CCN(CCCc2ccccc2)CC1` is more than 100 µM.
The molecule `COC(=O)C1=C(OC(=O)/C(=C/c2ccccc2)c2ccc(Cl)cc2Cl)C(C(=O)OC)[C@@]2(O)[C@@H](C(=O)OC)[C@H](C)C[C@@H]1[C@@H]2C(=O)OC` (stereo partly drawn) displayed a TGI of more than 100 µM.
Still for that read-out and setting: then `C#CCn1c(=O)c(I)cn(/C(=C/C(=O)OCC)C(=O)OCC)c1=O`, with 33 µM; and `CS(=O)(=O)C(C#N)c1nc2ccccc2nc1Cl` (stereo not drawn), with more than 100 µM.
The same measure, in the same setting: the figure for `O=C(/C=C/c1ccc(O)c(O)c1)OCC(OC(=O)/C=C/c1ccc(O)c(O)c1)C(=O)O` (stereo not drawn) is more than 100 µM.
In turn, `COc1ccc(CC2COc3cc(OC)cc(OC)c3C2=O)cc1` (stereo not drawn) displayed a TGI of more than 100 µM.
Same read-out and setting: the figure for `O=c1oc2ccccc2c(Nc2ccc3c(c2)Sc2ccccc2O3)c1[N+](=O)[O-]` is 54.7 µM.

The next experiment relates to HT29 colon. Kind of experiment: NCI tumour cell line growth inhibition, 48 h.
`COC(=O)C1Cc2cc3c(cc2C1=O)CCC3` (stereo not drawn): the TGI is more than 100 µM.
On the same count and under the same terms, then `Cc1c(N2C(=O)C(Cl)C2/C=C/c2ccccc2)c(=O)n(-c2ccccc2)n1C` (stereo not drawn), with 56.3 µM.
The same measure, in the same setting: then `Cc1ccc2c(ccc(/C=C/c3ccc(O)c4ncccc34)[n+]2C)c1`, with 27.7 µM; and `CCOC(=O)c1ccc(N=C/C=C(\Nc2ccc(C(=O)OCC)cc2)C23CC4CC(CC(C4)C2)C3)cc1`, with more than 100 µM.
The same measure, in the same setting: the figure for `O=c1[nH]c2cc(C(F)(F)F)ccc2nc1C(F)(F)F` is more than 100 µM; for `Cc1ccc(C(=O)N/N=C(\N=Nc2cccc([N+](=O)[O-])c2)c2ccc(N(CCC#N)CCC#N)cc2C)cc1` it is more than 100 µM.
As to `O=C(O)c1c2c(cc3c1CC(Cc1ccccc1)C3=O)CCC2` (stereo not drawn), the TGI was more than 100 µM.
As to `OC(CC1CCCCN1)c1ccc2c(c1)oc1ccccc12` (stereo not drawn), the TGI was more than 100 µM.
On the same count and under the same terms, then `C=CC[C@]1(/C=N/O)CN(S(=O)(=O)CC[Si](C)(C)C)C[C@H]2CC=CC[C@H]21`, with 30.8 µM.
Same read-out and setting: the figure for `O=C1OC(CCCN2CCCCC2)(c2ccccc2)CC12CCCC2` (stereo not drawn) is more than 92 µM.
Same read-out and setting: the figure for `COC(=O)[C@@H]1C=C[C@H](OC2OC(COC(C)=O)C(OC(C)=O)C(OC(C)=O)C2OC(C)=O)n2c(=O)n(-c3ccccc3)c(=O)n21` (stereo partly drawn) is 3.64 µM.
In turn, `Nc1ccccc1CCN1CCN(CCCc2ccccc2)CC1` gave a TGI of more than 100 µM.
`COC(=O)C1=C(OC(=O)/C(=C/c2ccccc2)c2ccc(Cl)cc2Cl)C(C(=O)OC)[C@@]2(O)[C@@H](C(=O)OC)[C@H](C)C[C@@H]1[C@@H]2C(=O)OC` (stereo partly drawn) gave a TGI of more than 100 µM.
Still for that read-out and setting: the figure for `C#CCn1c(=O)c(I)cn(/C(=C/C(=O)OCC)C(=O)OCC)c1=O` is 36.9 µM.
`CS(=O)(=O)C(C#N)c1nc2ccccc2nc1Cl` (stereo not drawn): the TGI was more than 100 µM.
On the same count and under the same terms, then `O=C(/C=C/c1ccc(O)c(O)c1)OCC(OC(=O)/C=C/c1ccc(O)c(O)c1)C(=O)O` (stereo not drawn), with more than 100 µM; and `COc1ccc(CC2COc3cc(OC)cc(OC)c3C2=O)cc1` (stereo not drawn), with 40.4 µM; and `O=c1oc2ccccc2c(Nc2ccc3c(c2)Sc2ccccc2O3)c1[N+](=O)[O-]`, with 65.9 µM.
